Source: US7608688B2, “HIV-1 protein associated with broadly reactive neutralizing antibody response” (The Henry M. Jackson Foundation for the Advancement of …, priority 1998, dated 2009)
In brackets after ≈: the same amount, converted by molar mass. Where two headings read alike, the source gives them in different places. Bridge positions count the residues as written; N and C are the ends. Peptide text beside a SMILES is read from it.

Test: Solubility of V3 peptides
Type: physicochemical
Conditions: for solubility: 10 percent DMSO in water, estimated by turbidity, read-out: solubility in 10 percent DMSO solution at pH=7.4
Description: To obtain cyclic peptides, solutions of the R2 and R2(313-4PM/HI, 325Q/D) V3 35-mers in dimethylsulfoxide (DMSO), 10 mg/ml, were diluted 1:10 in water at room temperature or 37° C. and the pH was adjusted to 8.5 with ammonium hydroxide. These solutions were aerated by bubbling air through the solutions for periods ≧1 hour. Following aeration, the pH was adjusted to 7.4 using hydrochloric acid. A portion of the R2 35-mer peptide precipitated during these procedures. To obtain an approximate quantitation of the amount of R2 V3 35-mer that remained in solution, the turbidity of the suspension was determined at 480 nm wavelength visible light using a spectrophotometer. The spectrophotometer was blanked with a solution of 10 percent DMSO in water, and a standard curve was produced using slurries of known amounts of the 35-mer peptide suspended in water. The amount of precipitate estimated by turbidity was subtracted from the amount of peptide added at the beginning of the preparation procedure to estimate the amount remaining in solution. […] Peptides were sterilized by passage through 0.22μ pore size filters prior to use.

Row | Molecule | solubility (pH 7.4, processed at 37° C.) [µg/mL] | solubility (pH 7.4, processed at room temperature) [µg/mL] | solubility in water (water)
1 | CC[C@H](C)[C@@H]1NC(=O)[C@H](CC(=O)O)NC(=O)CNC(=O)[C@H]([C@@H](C)CC)NC(=O)[C@H]([C@@H](C)CC)NC(=O)[C@H](CCC(N)=O)NC(=O)CNC(=O)[C@H]([C@@H](C)O)NC(=O)[C@H]([C@@H](C)O)NC(=O)[C@H](Cc2ccc(O)cc2)NC(=O)[C@H](Cc2ccccc2)NC(=O)[C@H](C)NC(=O)[C@H](CCCNC(=N)N)NC(=O)CNC(=O)[C@@H]2CCCN2C(=O)CNC(=O)[C@H](CCSC)NC(=O)[C@@H]2CCCN2C(=O)[C@H]([C@@H](C)CC)NC(=O)[C@H](CO)NC(=O)[C@H](CCCCN)NC(=O)[C@H](CCCNC(=N)N)NC(=O)[C@H]([C@@H](C)O)NC(=O)[C@H](CC(N)=O)NC(=O)[C@H](CC(N)=O)NC(=O)[C@H](CC(N)=O)NC(=O)[C@@H]2CCCN2C(=O)[C@H](CCCNC(=N)N)NC(=O)[C@H](CO)NC(=O)[C@@H](N)CSSC[C@@H](C(=O)O)NC(=O)[C@H](Cc2c[nH]cn2)NC(=O)[C@H](C)NC(=O)[C@H](CCC(N)=O)NC(=O)[C@H](CCCNC(=N)N)NC1=O [cyclic 35-mer R2 V3 peptide] (H-CSRPNNNTRKSIPMGPGRAFYTTGQIIGDIRQAHC-OH; disulfide 1-35; N-terminus and C-terminus assumed) | 850 to 900 (≈ 220 to 233 µM) | 300 to 350 (≈ 77.7 to 90.7 µM) | –
2 | CSRPNNNTRKSIPMGPGRAFYTTGQIIGDIRQAHC (Human immunodeficiency virus type 1; R2 strain V3 domain) [R2 V3 35-mer] | – | – | insoluble in water
